Reference: ChEMBL document CHEMBL1201862, “PubChem BioAssay data set” (2004)
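Growth conditions: 96-well plates. Treatment: test compound, 48 hours, 5 concentrations. Analysis: linear interpolation between bracketing concentrations; unreached endpoints set to highest concentration. At the GI50, growth is halved.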 The source made the active and inactive calls. No stated cut-off is given here; in the data, active = GI50 up to about 1.1 µM and inactive = higher.

Experiments:
Assay in all cases: NCI anticancer screen, dose series, 48 h
SK-MEL-28 = tested on: SK-MEL-28
786-0 = tested on: 786-0
SN12C = tested on: SN12C
SW-620 = tested on: SW-620
SNB-75 = tested on: SNB-75
A549 = tested on: A549
DLD-1 = tested on: DLD-1
M19-MEL = tested on: M19-MEL
SF-295 = tested on: SF-295
Hs-578T = tested on: Hs-578T
NCI-H460 = tested on: NCI-H460
DMS-273 = tested on: DMS-273
NCI-H226 = tested on: NCI-H226
MCF7 = tested on: MCF7
DU-145 = tested on: DU-145
OVCAR-8 = tested on: OVCAR-8
HOP-62 = tested on: HOP-62
CAKI-1 = tested on: CAKI-1
LOX IMVI = tested on: LOX IMVI
KM-20L2 = tested on: KM-20L2
SNB-19 = tested on: SNB-19
HL-60 = tested on: HL-60
DMS-114 = tested on: DMS-114
EKVX = tested on: EKVX
LXFL 529 = tested on: LXFL 529
OVCAR-3 = tested on: OVCAR-3
NCI/ADR-RES = tested on: NCI/ADR-RES
HCT-15 = tested on: HCT-15
U-251 = tested on: U-251
SF-539 = tested on: SF-539
COLO 205 = tested on: COLO 205
HOP-92 = tested on: HOP-92
K562 = tested on: K562
M14 = tested on: M14
CCRF-CEM = tested on: CCRF-CEM
UACC-62 = tested on: UACC-62
T47D = tested on: T47D
SK-OV-3 = tested on: SK-OV-3
SF-268 = tested on: SF-268
HOP-18 = tested on: HOP-18
Malme-3M = tested on: Malme-3M
MDA-N = tested on: MDA-N
BT-549 = tested on: BT-549
HCC 2998 = tested on: HCC 2998
SNB-78 = tested on: SNB-78
A498 = tested on: A498
RXF 631 = tested on: RXF 631
HCT-116 = tested on: HCT-116
NCI-H23 = tested on: NCI-H23
KM12 = tested on: KM12
SK-MEL-2 = tested on: SK-MEL-2
MOLT-4 = tested on: MOLT-4
TK-10 = tested on: TK-10
NCI-H522 = tested on: NCI-H522
UO-31 = tested on: UO-31
RXF 393 = tested on: RXF 393
IGROV-1 = tested on: IGROV-1
UACC-257 = tested on: UACC-257
PC-3 = tested on: PC-3
SK-MEL-5 = tested on: SK-MEL-5
ACHN = tested on: ACHN
RPMI-8226 = tested on: RPMI-8226
MDA-MB-435 = tested on: MDA-MB-435
SR = tested on: SR
OVCAR-4 = tested on: OVCAR-4
OVCAR-5 = tested on: OVCAR-5
HT-29 = tested on: HT-29
MDA-MB-231 = tested on: MDA-MB-231

With `O=C1C(CN2CCOCC2)CCCC1CN1CCOCC1` (centres undefined) the GI50 (SK-MEL-28) was 1.95 µM (inactive), the GI50 (786-0) was 1.16 µM (inactive) and the GI50 (SN12C) was 4.01 µM (inactive). The GI50 (SW-620) was 0.436 µM (active), the GI50 (SNB-75) was 14 µM (inactive) and the GI50 (A549) was 24.1 µM (inactive). The GI50 (DLD-1) was 0.67 µM (active), the GI50 (M19-MEL) was 7.11 µM (inactive) and the GI50 (SF-295) was 33.4 µM (inactive). The GI50 (Hs-578T) was 23 µM (inactive), the GI50 (NCI-H460) was 24.6 µM (inactive) and the GI50 (DMS-273) was 8.11 µM (inactive). The GI50 (NCI-H226) was 20.6 µM (inactive), the GI50 (MCF7) was 303 nM (active) and the GI50 (DU-145) was 17.3 µM (inactive). The GI50 (OVCAR-8) was 3.41 µM (inactive), the GI50 (HOP-62) was > 100 µM (inactive) and the GI50 (CAKI-1) was 0.394 µM (active). The GI50 (LOX IMVI) was 3.28 µM (inactive), the GI50 (KM-20L2) was 6.43 µM (inactive) and the GI50 (SNB-19) was 30.8 µM (inactive). The GI50 (HL-60) was 0.787 µM (active), the GI50 (DMS-114) was 5.61 µM (inactive) and the GI50 (EKVX) was 4.23 µM (inactive). For the same compound, the GI50 (LXFL 529) was 1.53 µM (inactive), the GI50 (OVCAR-3) was 3.1 µM (inactive) and the GI50 (NCI/ADR-RES) was 2.18 µM (inactive). For the same compound, the GI50 (HCT-15) was 1090 nM, the GI50 (U-251) was 30.1 µM (inactive) and the GI50 (SF-539) was 3.92 µM (inactive). For the same compound, the GI50 (COLO 205) was 3.1 µM (inactive), the GI50 (HOP-92) was 920 nM (active) and the GI50 (K562) was 0.48 µM (active). For the same compound, the GI50 (M14) was 3.44 µM (inactive), the GI50 (CCRF-CEM) was 0.76 µM (active) and the GI50 (UACC-62) was 7.85 µM (inactive). The GI50 (T47D) was 1.13 µM (inactive), the GI50 (SK-OV-3) was 32.1 µM (inactive) and the GI50 (SF-268) was 9.77 µM (inactive). The GI50 (HOP-18) was 1.81 µM (inactive), the GI50 (Malme-3M) was 0.724 µM (active) and the GI50 (MDA-N) was 4.37 µM (inactive). The GI50 (BT-549) was 1.96 µM (inactive), the GI50 (HCC 2998) was 5.27 µM (inactive) and the GI50 (SNB-78) was 2.35 µM (inactive). For the same compound, the GI50 (A498) was 23 µM (inactive), the GI50 (RXF 631) was 10.5 µM (inactive) and the GI50 (HCT-116) was 1.29 µM (inactive). The GI50 (NCI-H23) was 6 µM (inactive), the GI50 (KM12) was 5.98 µM (inactive) and the GI50 (SK-MEL-2) was 8.36 µM (inactive). The GI50 (MOLT-4) was 0.861 µM (active), the GI50 (TK-10) was 3.94 µM (inactive) and the GI50 (NCI-H522) was 0.0597 µM (active). For the same compound, the GI50 (UO-31) was 9.73 µM (inactive), the GI50 (RXF 393) was 1.75 µM (inactive) and the GI50 (IGROV-1) was 8.79 µM (inactive). The GI50 (UACC-257) was 2.09 µM (inactive), the GI50 (PC-3) was 15.6 µM (inactive) and the GI50 (SK-MEL-5) was 11.1 µM (inactive). The GI50 (ACHN) was 1.88 µM (inactive), the GI50 (RPMI-8226) was 0.296 µM (active) and the GI50 (MDA-MB-435) was 14.4 µM (inactive). For the same compound, the GI50 (SR) was 5.31 µM (inactive), the GI50 (OVCAR-4) was 2.18 µM (inactive) and the GI50 (OVCAR-5) was 18.6 µM (inactive). For the same compound, the GI50 (HT-29) was 1.76 µM (inactive) and the GI50 (MDA-MB-231) was 5.97 µM (inactive).

With `Cc1ccc(S(=O)(=O)N/N=C2\CCCCC23CCC(=O)NC3)cc1` (centres undefined) the GI50 (SK-MEL-28) was > 100 µM (inactive), the GI50 (786-0) was > 100 µM (inactive) and the GI50 (SN12C) was > 100 µM (inactive). The GI50 (SW-620) was > 100 µM (inactive), the GI50 (SNB-75) was > 100 µM (inactive) and the GI50 (A549) was > 100 µM (inactive). For the same compound, the GI50 (DLD-1) was > 100 µM (inactive), the GI50 (M19-MEL) was > 100 µM (inactive) and the GI50 (NCI-H460) was > 100 µM (inactive). The GI50 (DMS-273) was > 100 µM (inactive), the GI50 (NCI-H226) was > 100 µM (inactive) and the GI50 (OVCAR-8) was > 100 µM (inactive). For the same compound, the GI50 (HOP-62) was > 100 µM (inactive), the GI50 (CAKI-1) was > 100 µM (inactive) and the GI50 (KM-20L2) was > 100 µM (inactive). For the same compound, the GI50 (SNB-19) was > 100 µM (inactive), the GI50 (HL-60) was > 100 µM (inactive) and the GI50 (DMS-114) was > 100 µM (inactive). The GI50 (LXFL 529) was > 100 µM (inactive), the GI50 (OVCAR-3) was > 100 µM (inactive) and the GI50 (HCT-15) was over 100000 nM. For the same compound, the GI50 (U-251) was > 100 µM (inactive), the GI50 (SF-539) was > 100 µM (inactive) and the GI50 (COLO 205) was > 100 µM (inactive). The GI50 (K562) was > 100 µM (inactive), the GI50 (M14) was > 100 µM (inactive) and the GI50 (CCRF-CEM) was > 100 µM (inactive). For the same compound, the GI50 (UACC-62) was > 100 µM (inactive), the GI50 (SK-OV-3) was > 100 µM (inactive) and the GI50 (SF-268) was > 100 µM (inactive). For the same compound, the GI50 (HOP-18) was > 100 µM (inactive), the GI50 (Malme-3M) was > 100 µM (inactive) and the GI50 (HCC 2998) was > 100 µM (inactive). For the same compound, the GI50 (SNB-78) was > 100 µM (inactive), the GI50 (A498) was > 100 µM (inactive) and the GI50 (RXF 631) was > 100 µM (inactive). The GI50 (HCT-116) was > 100 µM (inactive), the GI50 (KM12) was > 100 µM (inactive) and the GI50 (SK-MEL-2) was > 100 µM (inactive). The GI50 (MOLT-4) was > 100 µM (inactive), the GI50 (TK-10) was > 100 µM (inactive) and the GI50 (NCI-H522) was > 100 µM (inactive). For the same compound, the GI50 (UO-31) was > 100 µM (inactive), the GI50 (RXF 393) was > 100 µM (inactive) and the GI50 (IGROV-1) was > 100 µM (inactive). The GI50 (UACC-257) was > 100 µM (inactive), the GI50 (SK-MEL-5) was > 100 µM (inactive) and the GI50 (ACHN) was > 100 µM (inactive). The GI50 (RPMI-8226) was > 100 µM (inactive), the GI50 (SR) was > 100 µM (inactive) and the GI50 (OVCAR-4) was > 100 µM (inactive).
